# *1 amine or outer side, *2 acyl side, *3 side chain or, on linkers, in order; H or OH if unused. Where a SMILES comes first, the peptide text is derived from it. [ ]: non-standard residue; d: D form. The star is where a group is joined. X1 = O=C(O)CC[C@H](NC(=O)N[C@@H](CCCCNC(=O)CCCCCCC(=O)*)C(=O)O)C(=O)O; Dolaproine = CO[C@@H]([C@@H]1CCCN1)[C@@H](C)C(=O)O; Dil = CC[C@H](C)[C@H](NC)[C@@H](CC(=O)O)OC; PABC = O=C(OCc1ccc(N[*:1])cc1)[*:2]; X2 = C[C@@H](N*)[C@@H](O)c1ccccc1; Cit = NC(=O)NCCC[C@H](N)C(=O)O; NMeV = CN[C@H](C(=O)O)C(C)C
# Target: T1, cathepsin B (Homo sapiens, UniProt P07858)
# T1 construct: gene CTSB; recombinant cathepsin B
# Experiment: cleavage by recombinant cathepsin B followed by HPLC (MMAE release)
# Type: biochemical
smiles,measurement,value
"CC[C@H](C)[C@@H]([C@@H](CC(=O)N1CCC[C@H]1[C@H](OC)[C@@H](C)C(=O)N[C@H](C)[C@@H](O)c1ccccc1)OC)N(C)C(=O)[C@@H](NC(=O)[C@H](C(C)C)N(C)C(=O)OCc1ccc(NC(=O)[C@H](CCCNC(N)=O)NC(=O)[C@@H](NC(=O)CCCCCCC(=O)NCCCC[C@H](NC(=O)N[C@@H](CCC(=O)O)C(=O)O)C(=O)O)C(C)C)cc1)C(C)C [SBPD-1, (6S,9S,24S,28S)-1-amino-6-((4-((5S,8S,11S)-11-((S)-sec-butyl)-12-(2-((S)-2-((1R,2R)-3-(((1S,2R)-1-hydroxy-1-phenylpropan-2-yl)amino)-1-methoxy-2-methyl-3-oxopropyl)pyrrolidin-1-yl)-2-oxoethyl)-5,8-diisopropyl-4,10-dimethyl-3,6,9-trioxo-2,13-dioxa-4,7,10-triazatetradecyl)phenyl)carbamoyl)-9-isopropyl-1,8,11,18,26-pentaoxo-2,7,10,19,25,27-hexaazatriacontane-24,28,30-tricarboxylic acid] (X1-V[Cit][PABC][NMeV]V[Dil][Dolaproine]-X2)",metabolised at 3 h,80%

# — PMC8007718, “A prostate-specific membrane antigen (PSMA)-targeted prodrug with a favorable in vivo toxicity profile” (Scientific Reports, 2021)
